Where only a bound is given, the exact number is not on record here.

Consider 9 compounds from patent US20240174644A1, “QUINOXALINE UREA INHIBITORS OF IKK-BETA AND NF-KB” (BOARD OF REGENTS OF THE UNIVERSITY OF NEBRASKA, priority 2021, published 2024).

In test [1] the test system is MM1S cells. In words: Growth inhibition assay in MM1S cells (Presto blue). Type of test: cell-based. To be noted: Homo sapiens, MM1.S, 120 h, MM1S cells (multiple myeloma model), 5-day incubation, triplicate. The method, then:
MM1S cells were seeded (20K cells/well) and increasing concentrations of the inhibitors were added to these cells in triplicate. The plates were incubated for 5 -days after which Presto blue (544/590 ex/em wavelengths) was added and plates read after additional 15 min incubation at 37° C. The IC50 values were derived by curve fitting the data.

Test [2] deals with caspase 3/7. In words: Caspase 3/7 activation assay in MM1S cells (Apo-One homogeneous caspase 3/7 assay). Type of test: cell-based. Particulars: inhibitor 10 μM, 24 h, fold change relative to the DMSO control. The method, then:
MM1 S cells were seeded (25K cells/well) and inhibitors (10 μM) were added to these cells in triplicate. The plates were incubated for 24 h. Under multiplexing conditions, the cell viability using Alamar Blue assay and caspase activity using Apo-One homogeneous caspase 3/7 assay was determined. Data represented as fold change relative to the DMSO control.

In test [1], `Cn1cc(-c2cnc3ccc(NC(=O)Nc4ccc(F)c(Br)c4)cc3n2)cn1` [Compound 1] gave a concentration for half-maximal inhibition (IC50) of 5.43 ± 0.16 µM.

As to `Cn1cc(-c2cnc3ccc(NC(=O)Nc4cccc(Br)c4)cc3n2)cn1` [Compound 2], in test [2], the “Caspase 3/7 activation” value is recorded as 1.06 ± 0.03 fold change. In test [1], this compound registered an IC50 of 2.83 ± 0.09 µM.

Turning to `Cn1cc(-c2cnc3ccc(NC(=O)Nc4ccc(F)cc4)cc3n2)cn1` [Compound 3, 1-(4-fluorophenyl)-3-(3-(1-methyl-1H-pyrazol-4-yl)quinoxalin-6-yl)urea], in test [2], the “Caspase 3/7 activation” value is 1.03 ± 0.06 fold change. The half-inhibitory concentration (IC50) in test [1] was above 20 µM.

With `Cn1cc(-c2cnc3ccc(NC(=O)Cc4ccc(F)c(Br)c4)cc3n2)cn1` [Compound 4], the concentration for half-maximal inhibition (IC50) in test [1] came to 4.67 ± 0.09 µM. On the same count and under the same terms, as for `Cn1cc(-c2ccc3ccc(NC(=O)Nc4ccc(F)c(Br)c4)cc3n2)cn1` [Compound 5], the figure is 5.56 ± 0.66 µM. For `Cn1cc(-c2cnc3ccc(NC(=O)Nc4ccc(F)c(Br)c4)cc3c2)cn1` [Compound 6, 1-(3-Bromo-4-fluorophenyl)-3-(3-(1-methyl-1H-pyrazol-4-yl)quinolin-6-yl)urea], in test [2], the “Caspase 3/7 activation” value is reported as 1.36 ± 0.04 fold change. In addition, it took 10.6 ± 0.4 µM to reach half-maximal inhibition in test [1] (IC50). For `Cn1ccc(-c2cnc3ccc(NC(=O)Nc4ccc(F)c(Br)c4)cc3n2)c1` [Compound 7, 1-(3-Bromo-4-fluorophenyl)-3-(3-(1-methyl-1 H-pyrrol-3-yl)quinoxalin-6-yl)urea] the same measures were 1.51 ± 0.01 fold change and 2.85 ± 0.09 µM. For `Cn1cc(-c2cnc3ccc(NC(=O)Nc4ccc(F)c(C(F)(F)F)c4)cc3n2)cn1` [Compound 8], in that order: 1.96 ± 0.05 fold change and 5.38 ± 0.13 µM. For `Cn1cc(-c2cnc3ccc(NC(=O)Nc4ccc(F)c(C(F)(F)F)c4F)cc3n2)cn1` [Compound 9] the same measures were 9.79 ± 2.47 fold change and 0.75 ± 0.01 µM.
